Experimental data from patent US7544707B2, “Bicyclic derivatives as PPAR modulators” (Eli Lilly and Company, priority 2003, dated 2009).

SMILES	melting point [°C]
CCc1cc(SCc2cccc3cn(-c4ccc(C(F)(F)F)cc4)nc23)ccc1OCC(=O)O [Example 3, 2-Ethyl-4-[2-(4-trifluoromethylphenyl)-2H-indazol-7-ylmethylsulfanyl]phenoxyacetic Acid]	159 to 161
CCc1cc(SCCc2cccc3cn(-c4ccc(C(F)(F)F)cc4)nc23)ccc1OCC(=O)O [Example 45, (2-Ethyl-4-{2-[2-(4-trifluoromethylphenyl)-2H-indazol-7-yl]ethylsulfanyl}phenoxy)acetic Acid]	115 to 117
CC(Oc1ccc(SC(C)(C)C(=O)O)cc1)c1cccc2cn(-c3ccc(C(F)(F)F)cc3)nc12 (racemic) [Example 43, (+/−)-2-Methyl-2-(4-{1-[2-(4-trifluoromethylphenyl)-2H-indazol-7-yl]ethoxy}phenylsulfanyl)propionic Acid]	158 to 160
CC(C)(Sc1ccc(OCc2ccc3cn(-c4ccc(C(F)(F)F)cc4)nc3c2)cc1)C(=O)O [Example 55, 2-Methyl-2-{4-[2-(4-trifluoromethylphenyl)-2H-indazol-6-ylmethoxy]phenylsulfanyl}propionic Acid]	133 to 135
CC(C)(Oc1ccc(COCc2ccc3cn(-c4ccc(C(F)(F)F)cc4)nc3c2)cc1)C(=O)O [Example 56, 2-Methyl-2-{4-[2-(4-trifluoromethylphenyl)-2H-indazol-6-ylmethoxymethyl]phenoxy}propionic Acid]	129 to 131
CC(Oc1ccc(OC(C)(C)C(=O)O)cc1)c1cccc2c1cnn2-c1ccc(C(F)(F)F)cc1 (racemic) [Example 85, (+/−)-2-Methyl-2-(4-{1-[1-(4-trifluoromethylphenyl)-1H-indazol-4-yl]ethoxy}phenoxy)propionic Acid]	99 to 102
CC(C)(Oc1ccc(OCc2ccc3cn(-c4ccc(C(F)(F)F)cc4)nc3c2)cc1)C(=O)O [Example 52, 2-Methyl-2-{4-[2-(4-trifluoromethylphenyl)-2H-indazol-6-ylmethoxy]phenoxy}propionic Acid]	199 to 201
CC(Sc1ccc2c(CC(=O)O)csc2c1)c1cccc2cn(-c3ccc(C(F)(F)F)cc3)nc12 (racemic) [Example 11, (+/−)-6-{1-[2-(4-Trifluoromethylphenyl)-2H-indazol-7-yl]ethylsulfanyl}benzo[b]thiophen-3-ylacetic Acid]	76 to 78
CCc1cc(OCc2ccc3cn(-c4ccc(C(F)(F)F)cc4)nc3c2)ccc1CCC(=O)O [Example 22, 3-{2-Ethyl-4-[2-(4-trifluoromethylphenyl)-2H-indazol-6-ylmethoxy]phenyl}propionic Acid]	190 to 192
Cc1cc(OCc2cccc3cn(-c4ccc(C(F)(F)F)cc4)nc23)ccc1CCC(=O)O [Example 6, 3-{2-Methyl-4-[2-(4-trifluoromethylphenyl)-2H-indazol-7-ylmethoxy]phenyl}propionic Acid]	133 to 135
CC(Sc1ccc(OC(C)(C)C(=O)O)cc1)c1cccc2nn(-c3ccc(C(F)(F)F)cc3)cc12 (racemic) [Example 73, (+/−)-2-Methyl-2-(4-{1-[2-(4-trifluoromethylphenyl)-2H-indazol-4-yl]ethylsulfanyl}phenoxy)propionic Acid]	148 to 150
Cc1cc(SC(C)c2ccc3cn(-c4ccc(C(F)(F)F)cc4)nc3c2)ccc1OC(C)(C)C(=O)O (racemic) [Example 60, (+/−)-2-Methyl-2-(2-methyl-4-{1-[2-(4-trifluoromethylphenyl)-2H-indazol-6-yl]ethylsulfanyl}phenoxy)propionic Acid]	114 to 116
CC(C)(Oc1ccc(SCc2cccc3cn(-c4ccc(C(F)(F)F)cc4)nc23)cc1)C(=O)O [Example 36, 2-Methyl-2-{4-[2-(4-trifluoromethylphenyl)-2H-indazol-7-ylmethylsulfanyl]phenoxy}propionic Acid]	140 to 142
Cc1cc(SCc2ccc3cn(-c4ccc(C(F)(F)F)cc4)nc3c2)ccc1CCC(=O)O [Example 20, 3-{2-Methyl-4-[2-(4-trifluoromethylphenyl)-2H-indazol-6-ylmethylsulfanyl]phenyl}propionic Acid]	130 to 132
O=C(O)Cc1csc2cc(SCc3cccc4nn(-c5ccc(C(F)(F)F)cc5)cc34)ccc12 [Example 29, 6-[2-(4-Trifluoromethylphenyl)-2H-indazol-4-ylmethylsulfanyl]benzo[b]thiophen-3-ylacetic Acid]	183 to 185
Cc1cc(SCc2cccc3cn(-c4ccc(C(F)(F)F)cc4)nc23)ccc1CCC(=O)O [Example 2, 3-{2-Methyl-4-[2-(4-trifluoromethylphenyl)-2H-indazol-7-ylmethylsulfanyl]phenyl}propionic Acid]	88 to 90
Cc1cc(OC(C)c2cccc3c2cnn3-c2ccc(C(F)(F)F)cc2)ccc1OC(C)(C)C(=O)O (racemic) [Example 82, (+/−)-2-Methyl-2-(2-methyl-4-{1-[1-(4-trifluoromethylphenyl)-1H-indazol-4-yl]ethoxy}phenoxy)propionic Acid]	82 to 85

SMILES	melting point [°C]
Cc1cc(OCc2ccc3cn(-c4ccc(C(F)(F)F)cc4)nc3c2)ccc1OC(C)(C)C(=O)O [Example 51, 2-Methyl-2-{2-methyl-4-[2-(4-trifluoromethylphenyl)-2H-indazol-6-ylmethoxy]phenoxy}propionic Acid]	119 to 121
CC(C)(Oc1ccc(OCc2cccc3cn(-c4ccc(C(F)(F)F)cc4)nc23)cc1)C(=O)O [Example 39, 2-Methyl-2-{4-[2-(4-trifluoromethylphenyl)-2H-indazol-7-ylmethoxy]phenoxy}propionic Acid]	178 to 180
Cc1cc(SCc2cccc3cn(-c4ccc(C(F)(F)F)cc4)nc23)ccc1OC(C)(C)C(=O)O [Example 35, 2-Methyl-2-{2-methyl-4-[2-(4-trifluoromethylphenyl)-2H-indazol-7-ylmethylsulfanyl]phenoxy}propionic Acid]	135 to 137
Cc1cc(SCc2ccc3nn(-c4ccc(C(F)(F)F)cc4)cc3c2)ccc1OC(C)(C)C(=O)O [Example 64, 2-Methyl-2-{2-methyl-4-[2-(4-trifluoromethylphenyl)-2H-indazol-5-ylmethylsulfanyl]phenoxy}propionic Acid]	143 to 145
CC(C)(Sc1ccc(OCc2cccc3c2cnn3-c2ccc(C(F)(F)F)cc2)cc1)C(=O)O [Example 80, 2-Methyl-2-{4-[1-(4-trifluoromethylphenyl)-1H-indazol-4-ylmethoxy]phenylsulfanyl}propionic Acid]	168 to 170
CC(C)(Oc1ccc(OCc2cccc3cnn(-c4ccc(C(F)(F)F)cc4)c23)cc1)C(=O)O [Example 100, 2-Methyl-1-2-{4-[1-(4-trifluoromethylphenyl)-1H-indazol-7-ylmethoxy]phenoxy}propionic Acid]	146 to 149
Cc1cc(OCc2ccc3cn(-c4ccc(C(F)(F)F)cc4)nc3c2)ccc1CCC(=O)O [Example 24, 3-{2-Methyl-4-[2-(4-trifluoromethylphenyl)-2H-indazol-6-ylmethoxy]phenyl}propionic Acid]	181 to 183
Cc1cc(SCc2cccc3c2cnn3-c2ccc(C(F)(F)F)cc2)ccc1OC(C)(C)C(=O)O [Example 78, 2-Methyl-2-{2-methyl-4-[1-(4-trifluoromethylphenyl)-1H-indazol-4-ylmethylsufanyl]phenoxy}propionic Acid]	62 to 66
Cc1cc(SCc2ccc3cn(-c4ccc(C(F)(F)F)cc4)nc3c2)ccc1OCC(=O)O [Example 19, 2-Methyl-4-[2-(4-trifluoromethylphenyl)-2H-indazol-6-ylmethylsulfanyl]phenoxyacetic Acid]	142 to 144
CC(C)(Oc1ccc(SCc2cccc3c2cnn3-c2ccc(C(F)(F)F)cc2)cc1)C(=O)O [Example 79, 2-Methyl-2-{4-[1-(4-trifluoromethylphenyl)-1H-indazol-4-ylmethylsulfanyl]phenoxy}propionic Acid]	158 to 160
Cc1cc(OCc2cccc3c2cnn3-c2ccc(C(F)(F)F)cc2)ccc1OC(C)(C)C(=O)O [Example 77, 2-Methyl-2-{2-methyl-4-[1-(4-trifluoromethylphenyl)-1H-indazol-4-ylmethoxy]phenoxy}propionic Acid]	100 to 104
CC(C)(Sc1ccc(OCc2cccc3cn(-c4ccc(C(F)(F)F)cc4)nc23)cc1)C(=O)O [Example 38, 2-Methyl-2-{4-[2-(4-trifluoromethylphenyl)-2H-indazol-7-ylmethoxy]phenylsulfanyl}propionic Acid]	175 to 177
CC(C)(Oc1ccc(SCCc2cccc3cn(-c4ccc(C(F)(F)F)cc4)nc23)cc1)C(=O)O [Example 50, 2-Methyl-2-(4-{2-[2-(4-trifluoromethylphenyl)-2H-indazol-7-yl]ethylsulfanyl}phenoxy)propionic Acid]	112 to 114
CC(Sc1ccc(OC(C)(C)C(=O)O)cc1)c1cccc2cn(-c3ccc(C(F)(F)F)cc3)nc12 (racemic) [Example 42, (+/−)-2-Methyl-2-(4-{1-[2-(4-trifluoromethylphenyl)-2H-indazol-7-yl]ethylsulfanyl}phenoxy)propionic Acid]	150 to 152
Cc1cc(SCc2cccc3c2cnn3-c2ccc(C(F)(F)F)cc2)ccc1CCC(=O)O [Example 32, 3-{2-Methyl-4-[1-(4-trifluoromethylphenyl)-1H-indazol-4-ylmethylsulfanyl]phenyl}propionic Acid]	113 to 115
Cc1cc(SC(C)c2cccc3cn(-c4ccc(C(F)(F)F)cc4)nc23)ccc1CCC(=O)O (racemic) [Example 9, (+/−)-3-(2-Methyl-4-{1-[2-(4-trifluoromethylphenyl)-2H-indazol-7-yl]ethylsulfanyl}phenyl)propionic Acid]	59 to 61
CC(Oc1ccc(SC(C)(C)C(=O)O)cc1)c1ccc2nn(-c3ccc(C(F)(F)F)cc3)cc2c1 (racemic) [Example 67, (+/−)-2-Methyl-2-(4-{1-[2-(4-trifluoromethylphenyl)-2H-indazol-5-yl]ethoxy}phenylsulfanyl)propionic Acid]	153 to 155
